The values that follow come from ChEMBL document CHEMBL2203089, “Synthesis of enantiomerically pure perhydro-1,4-diazepine-2,5-dione and 1,4-piperazine-2,5-dione derivatives exhibiting potent activity as apoptosis inhibitors” (Bioorg Med Chem Lett, 2012).

Assay [1] is described as follows: Inhibition of beta-lactamase.
The target in assay [2] is Apoptotic protease-activating factor 1/Caspase-3/Caspase-9/Cytochrome c (Homo sapiens, UniProt O14727+P42574+P55211+P99999). Description: Inhibition of Apaf-1-caspase 9-cytochrome c-caspase 3 complex in human HEK293 cytosolic extract using afc-DEVD as substrate preincubated for 30 mins before substrate addition measured after 30 mins by fluorescence assay.
Assay [3] in a line: Inhibition of Apaf-1-caspase 9-cytochrome c (horse) complex assessed as inhibition of release of afc from […] preincubated for 60 mins before substrate addition by fluorescence assay.

The structures appear in SMILES notation. Activity calls are given as the source filed them. No cut-off for these calls is given here.

Apoptotic protease-activating factor 1/Caspase-3/Caspase-9/Cytochrome c, sequence (O14727 whole entry): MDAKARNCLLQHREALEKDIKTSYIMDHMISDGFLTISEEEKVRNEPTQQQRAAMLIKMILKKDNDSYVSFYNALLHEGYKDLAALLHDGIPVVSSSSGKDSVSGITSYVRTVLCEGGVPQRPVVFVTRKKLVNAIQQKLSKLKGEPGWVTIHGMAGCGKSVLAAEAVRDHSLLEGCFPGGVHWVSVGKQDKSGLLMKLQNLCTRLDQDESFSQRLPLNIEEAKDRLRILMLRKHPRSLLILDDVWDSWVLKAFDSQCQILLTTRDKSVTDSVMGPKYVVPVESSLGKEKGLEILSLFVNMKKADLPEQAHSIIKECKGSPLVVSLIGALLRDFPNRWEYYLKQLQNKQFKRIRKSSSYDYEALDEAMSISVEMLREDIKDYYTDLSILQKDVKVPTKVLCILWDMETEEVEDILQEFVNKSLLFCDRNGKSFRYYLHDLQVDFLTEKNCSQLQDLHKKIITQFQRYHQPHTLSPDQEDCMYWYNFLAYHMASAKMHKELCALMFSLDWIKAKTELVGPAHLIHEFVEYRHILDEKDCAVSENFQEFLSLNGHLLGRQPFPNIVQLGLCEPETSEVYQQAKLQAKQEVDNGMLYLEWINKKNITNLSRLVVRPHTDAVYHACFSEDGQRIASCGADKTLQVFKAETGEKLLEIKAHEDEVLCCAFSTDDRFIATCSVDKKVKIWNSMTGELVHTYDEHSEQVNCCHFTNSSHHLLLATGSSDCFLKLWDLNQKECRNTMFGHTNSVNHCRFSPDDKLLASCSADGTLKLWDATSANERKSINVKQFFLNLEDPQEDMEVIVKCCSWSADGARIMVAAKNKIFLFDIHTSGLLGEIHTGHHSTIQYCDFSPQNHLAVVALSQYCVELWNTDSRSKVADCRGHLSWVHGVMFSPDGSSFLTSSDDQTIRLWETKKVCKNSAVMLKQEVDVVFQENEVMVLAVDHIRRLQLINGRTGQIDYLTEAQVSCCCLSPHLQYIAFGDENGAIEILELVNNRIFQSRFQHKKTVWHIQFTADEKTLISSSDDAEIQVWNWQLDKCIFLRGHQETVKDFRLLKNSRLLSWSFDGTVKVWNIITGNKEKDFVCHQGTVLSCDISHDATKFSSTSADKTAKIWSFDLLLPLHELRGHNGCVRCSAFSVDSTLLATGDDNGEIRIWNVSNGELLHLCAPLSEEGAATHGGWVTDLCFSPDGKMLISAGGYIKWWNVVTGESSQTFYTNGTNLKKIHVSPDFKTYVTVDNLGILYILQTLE
Apoptotic protease-activating factor 1/Caspase-3/Caspase-9/Cytochrome c, sequence (P42574 29-175 limits assumed): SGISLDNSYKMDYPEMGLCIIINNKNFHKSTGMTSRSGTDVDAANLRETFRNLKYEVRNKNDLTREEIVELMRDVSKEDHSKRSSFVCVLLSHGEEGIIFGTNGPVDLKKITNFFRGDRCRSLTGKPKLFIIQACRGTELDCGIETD
Apoptotic protease-activating factor 1/Caspase-3/Caspase-9/Cytochrome c, sequence (P42574 176-277 limits assumed): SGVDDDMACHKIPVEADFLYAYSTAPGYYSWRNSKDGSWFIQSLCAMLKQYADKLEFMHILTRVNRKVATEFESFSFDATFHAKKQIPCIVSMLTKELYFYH
Apoptotic protease-activating factor 1/Caspase-3/Caspase-9/Cytochrome c, sequence (P55211 1-315 limits assumed): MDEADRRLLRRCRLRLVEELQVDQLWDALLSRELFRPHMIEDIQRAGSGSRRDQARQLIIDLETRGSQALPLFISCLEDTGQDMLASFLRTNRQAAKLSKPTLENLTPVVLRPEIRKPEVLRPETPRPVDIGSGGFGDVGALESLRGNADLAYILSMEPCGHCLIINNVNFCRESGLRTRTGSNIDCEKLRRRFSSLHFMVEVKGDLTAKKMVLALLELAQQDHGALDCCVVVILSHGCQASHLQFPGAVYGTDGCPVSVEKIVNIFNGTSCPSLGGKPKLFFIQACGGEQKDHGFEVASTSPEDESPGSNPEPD
Apoptotic protease-activating factor 1/Caspase-3/Caspase-9/Cytochrome c, sequence (P55211 331-416 limits assumed): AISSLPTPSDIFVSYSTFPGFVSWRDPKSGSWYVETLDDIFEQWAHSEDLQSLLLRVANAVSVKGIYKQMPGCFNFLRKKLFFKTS
Apoptotic protease-activating factor 1/Caspase-3/Caspase-9/Cytochrome c, sequence (P99999 2-105 limits assumed): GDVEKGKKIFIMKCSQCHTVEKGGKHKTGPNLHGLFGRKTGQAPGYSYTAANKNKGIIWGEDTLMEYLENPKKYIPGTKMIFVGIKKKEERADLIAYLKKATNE

Usually EC50 stands for the concentration that produces a half-maximal response. In the case of `NC(=O)CN(CCc1ccc(Cl)cc1Cl)C(=O)C[C@@H]1C(=O)N(CCc2ccc(Cl)cc2Cl)CC(=O)N1CCC(c1ccccc1)c1ccccc1`, the inhibition result in assay [1] was “inactive”. Besides, the EC50 in assay [2] turned out to be 29.9 µM; in assay [3] it was 10.6 µM.

Take `NC(=O)CN(CCc1ccc(Cl)cc1Cl)C(=O)[C@H]1CC(=O)N(CCc2ccc(Cl)cc2Cl)CC(=O)N1CCC(c1ccccc1)c1ccccc1`: in assay [1], the inhibition entry is “inactive”. In addition, the EC50 in assay [2] was found to be 14.4 µM; in assay [3], 5 µM.

For the compound `NC(=O)CN(CCc1ccc(Cl)cc1Cl)C(=O)[C@@H]1CC(=O)N(CCc2ccc(Cl)cc2Cl)CC(=O)N1CCC(c1ccccc1)c1ccccc1`, the inhibition result in assay [1] was “inactive”. Also, the results for the half-maximal effective concentration (EC50) in assay [2] and in assay [3] were 14 µM and 3.2 µM, respectively.

Take `NC(=O)CN(CCc1ccc(Cl)cc1Cl)C(=O)C1CC(=O)N(CCc2ccc(Cl)cc2Cl)CC(=O)N1CCC(c1ccccc1)c1ccccc1` (racemic): the values for the EC50 in assay [2] and in assay [3] were 16.8 µM and 7.9 µM, respectively.

Turning to `NC(=O)CN(CCc1ccc(Cl)cc1Cl)C(=O)CC1C(=O)N(CCc2ccc(Cl)cc2Cl)CC(=O)N1CCC(c1ccccc1)c1ccccc1` (racemic), the figures for the EC50 in assay [2] and in assay [3] were 17 µM and 6.2 µM, respectively.

As to `NC(=O)CN(CCc1ccc(Cl)cc1Cl)C(=O)C[C@H]1C(=O)N(CCc2ccc(Cl)cc2Cl)CC(=O)N1CCC(c1ccccc1)c1ccccc1`, the inhibition result in assay [1] was “inactive”. In addition, the results for the EC50 in assay [2] and in assay [3] were 23.9 µM and 9.6 µM, respectively.
